Test [1] concerns the target T1, TLR8 (Homo sapiens, UniProt Q9NR97).
T1 construct: expressed in transfected cells; host or cells: HEK cells carrying TLR8 and an NFkB luciferase reporter
T1 sequence (Q9NR97 27-1041): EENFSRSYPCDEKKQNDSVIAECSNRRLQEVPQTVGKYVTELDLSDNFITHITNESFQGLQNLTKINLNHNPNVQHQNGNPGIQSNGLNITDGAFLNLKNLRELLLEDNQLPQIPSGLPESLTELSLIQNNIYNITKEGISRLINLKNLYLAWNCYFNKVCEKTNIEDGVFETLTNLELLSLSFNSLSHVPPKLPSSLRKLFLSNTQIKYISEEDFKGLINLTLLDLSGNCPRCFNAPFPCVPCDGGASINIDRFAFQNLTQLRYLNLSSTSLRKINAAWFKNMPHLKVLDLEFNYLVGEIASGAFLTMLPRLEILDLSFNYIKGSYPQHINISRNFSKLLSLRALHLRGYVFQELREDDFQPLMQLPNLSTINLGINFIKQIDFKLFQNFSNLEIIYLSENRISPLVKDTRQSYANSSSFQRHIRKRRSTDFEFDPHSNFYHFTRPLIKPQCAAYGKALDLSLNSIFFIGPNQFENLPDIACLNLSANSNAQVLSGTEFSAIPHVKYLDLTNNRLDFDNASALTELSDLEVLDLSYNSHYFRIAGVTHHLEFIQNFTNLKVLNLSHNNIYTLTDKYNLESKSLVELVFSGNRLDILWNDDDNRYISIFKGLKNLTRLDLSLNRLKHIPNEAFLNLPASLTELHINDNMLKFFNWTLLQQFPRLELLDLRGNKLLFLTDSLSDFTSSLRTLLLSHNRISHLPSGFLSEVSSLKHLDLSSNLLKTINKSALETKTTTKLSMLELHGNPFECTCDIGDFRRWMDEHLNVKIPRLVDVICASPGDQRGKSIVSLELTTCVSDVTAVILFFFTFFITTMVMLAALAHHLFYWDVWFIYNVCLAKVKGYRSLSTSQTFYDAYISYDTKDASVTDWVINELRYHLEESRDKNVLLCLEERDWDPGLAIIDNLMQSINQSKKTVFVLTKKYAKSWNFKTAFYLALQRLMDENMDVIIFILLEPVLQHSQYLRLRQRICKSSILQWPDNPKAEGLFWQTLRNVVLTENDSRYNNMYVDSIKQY
The experiment in a line: HEK TLR8 Cell Assay. The following applies: TLR8/NFKb HEK cells, R848 agonist 30 uM final, Steady-Glo readout. The format is cell-based. The protocol: Example 25: HEK TLR8 Cell Assay
(§1) Into 384 CulturePlates (Corning 3707) was placed 5000 c/w of TLR8/NFKb HEK cells in 30 uL DMEM without Phenol red (gibco #31053) and 10% FCS-HI, 2 mM L-Glutamine, 1% Pen/Strept. The cells are incubated for 24 h at 37 degrees Celsius, and 10% carbon dioxide. Dispense 3 uL of controls, standards, and compounds to wells, incubate for 30 min then add 3 uL of R848 (30 uM final concentration) agonist in 20 mM Hepes. Incubate for 5 hours and then allow to stand at room temperature for 15 min. Add 10 uL of Steady-Glo substrate reagent and shake assay plate for 5 min at 1500 rpm. Let the assay plate sit for 30 min at room temperature and then read plate on EnVision.

For test [2], the target named is T2, TLR7 (Homo sapiens, UniProt Q9NYK1).
T2 construct: expressed in transfected cells; host or cells: HEK cells carrying TLR7 and an NFkB luciferase reporter
T2 sequence (Q9NYK1 27-1049): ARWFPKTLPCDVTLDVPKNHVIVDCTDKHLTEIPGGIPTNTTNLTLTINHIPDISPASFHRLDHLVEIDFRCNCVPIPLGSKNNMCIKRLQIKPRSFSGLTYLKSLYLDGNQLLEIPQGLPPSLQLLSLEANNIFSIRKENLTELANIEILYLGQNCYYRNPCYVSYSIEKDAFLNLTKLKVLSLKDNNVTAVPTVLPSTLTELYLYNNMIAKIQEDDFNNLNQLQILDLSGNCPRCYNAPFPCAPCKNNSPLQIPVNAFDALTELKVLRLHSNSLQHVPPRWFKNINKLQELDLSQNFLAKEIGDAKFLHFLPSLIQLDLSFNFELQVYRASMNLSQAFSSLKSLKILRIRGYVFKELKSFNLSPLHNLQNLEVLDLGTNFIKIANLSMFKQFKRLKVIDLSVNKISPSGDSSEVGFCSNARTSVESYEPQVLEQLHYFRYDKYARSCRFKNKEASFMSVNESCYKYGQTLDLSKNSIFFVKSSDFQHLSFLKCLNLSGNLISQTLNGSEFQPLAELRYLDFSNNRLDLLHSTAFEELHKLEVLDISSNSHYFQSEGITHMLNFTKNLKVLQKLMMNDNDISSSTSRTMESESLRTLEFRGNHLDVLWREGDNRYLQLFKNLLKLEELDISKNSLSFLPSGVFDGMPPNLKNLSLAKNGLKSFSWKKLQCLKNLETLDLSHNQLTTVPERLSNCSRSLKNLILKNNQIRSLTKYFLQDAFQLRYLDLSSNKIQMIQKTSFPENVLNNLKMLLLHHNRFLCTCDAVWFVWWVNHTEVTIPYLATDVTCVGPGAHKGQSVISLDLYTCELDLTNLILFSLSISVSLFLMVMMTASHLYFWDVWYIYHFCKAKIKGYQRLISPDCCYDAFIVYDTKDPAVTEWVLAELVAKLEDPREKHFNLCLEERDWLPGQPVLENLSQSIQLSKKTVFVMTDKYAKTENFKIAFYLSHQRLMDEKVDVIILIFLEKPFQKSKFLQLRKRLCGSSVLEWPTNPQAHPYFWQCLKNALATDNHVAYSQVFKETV
The experiment in a line: HEK TLR7 Cell Assay. It is filed as cell-based. The following applies: TLR7/NFKb HEK cells, R848 agonist 10 uM final, Steady-Glo readout. The protocol: Example 24: HEK TLR7 Cell Assay
as §1, with “TLR7/NFKb” for “TLR8/NFKb”, “(10” for “(30”

Drawing on patent publication US10793553B2, “TLR7/8 antagonists and uses thereof” (Merck Patent GmbH, priority 2017, dated 2020), this text covers IC50 for 26 molecules.

`C[C@@H]1CN(c2ccc(C#N)c3nccnc23)C[C@@H]1NC(=O)CC1CCCN(C)C1` (single isomer, unassigned) [Compound 3]: the IC50 in test [1] and in test [2] was below 1000 nM in each case.

Regarding `C[C@@H]1CN(c2ccc(C#N)c3nccnc23)C[C@@H]1NC(=O)CC1CCCN(C)C1` (single isomer, unassigned) [Compound 4], the half-maximal inhibitory concentration (IC50) in test [1] and in test [2] was below 1000 nM in each case.

For the molecule `C[C@@H]1CN(c2ccc(C#N)c3nccnc23)C[C@@H]1NC(=O)CC1CCN(C)C1` (single isomer, unassigned) [Compound 5], the 50% inhibitory concentration (IC50) in test [1] and in test [2] was below 1000 nM each time.

As for `C[C@@H]1CN(c2ccc(C#N)c3nccnc23)C[C@@H]1NC(=O)CC1CCN(C)C1` (single isomer, unassigned) [Compound 6], the IC50 in test [1] and in test [2] was below 1000 nM in each case.

On to `C[C@@H]1CN(c2ccc(C#N)c3nccnc23)C[C@@H]1NC(=O)CC1CCN(C)CC1(F)F` (single isomer, unassigned) [Compound 11], for which the half-maximal inhibitory concentration (IC50) in test [1] and in test [2] was below 1000 nM throughout.

For `C[C@@H]1CN(c2ccc(C#N)c3nccnc23)C[C@@H]1NC(=O)CC1CCN(C)CC1(F)F` (single isomer, unassigned) [Compound 12], the IC50 in test [1] and in test [2] was below 1000 nM in each case.

For `C[C@@H]1CN(c2ccc(C#N)c3nccnc23)C[C@@H]1NC(=O)C(O)C1CC1` (single isomer, unassigned) [Compound 13], the results for the IC50 in test [1] and in test [2] were above 10000 nM and 1000 to 10000 nM, respectively.

Consider `C[C@@H]1CN(c2ccc(C#N)c3nccnc23)C[C@@H]1NC(=O)C(O)C1CC1` (single isomer, unassigned) [Compound 14], for which the IC50 (usually the point on the concentration scale where inhibition reaches its midpoint) in test [1] is 1000 to 10000 nM; in test [2] it was below 1000 nM.

Turning to `C[C@@H]1CN(c2ccc(C(F)(F)F)c3ncccc23)C[C@@H]1NC(=O)CC1CCCN(C)C1` (single isomer, unassigned) [Compound 19], the IC50 in test [1] and in test [2] was below 1000 nM in each case.

Consider `C[C@@H]1CN(c2ccc(C(F)(F)F)c3ncccc23)C[C@@H]1NC(=O)CC1CCCN(C)C1` (single isomer, unassigned) [Compound 20], for which the IC50 in test [1] is 1000 to 10000 nM; in test [2], below 1000 nM.

`C[C@@H]1CN(c2ccc(C(F)(F)F)c3ncccc23)C[C@@H]1NC(=O)CC1CCN(C)C1` (single isomer, unassigned) [Compound 21]: the half-maximal inhibitory concentration (IC50) in test [1] and in test [2] was below 1000 nM in each case.

`C[C@@H]1CN(c2ccc(C(F)(F)F)c3ncccc23)C[C@@H]1NC(=O)CC1CCN(C)C1` (single isomer, unassigned) [Compound 22]: the IC50 in test [1] and in test [2] was below 1000 nM throughout.

With `C[C@@H]1CN(c2ccc(C(F)(F)F)c3ncccc23)C[C@@H]1NC(=O)CC1CCN(C)CC1(F)F` (single isomer, unassigned) [Compound 27], the IC50 in test [1] and in test [2] was 1000 to 10000 nM throughout.

As for `C[C@@H]1CN(c2ccc(C(F)(F)F)c3ncccc23)C[C@@H]1NC(=O)CC1CCN(C)CC1(F)F` (single isomer, unassigned) [Compound 28], the 50% inhibitory concentration (IC50) in test [1] and in test [2] was 1000 to 10000 nM in each case.

For the molecule `C[C@@H]1CN(c2ccc(C(F)(F)F)c3ncccc23)C[C@@H]1NC(=O)C(O)C1CC1` (single isomer, unassigned) [Compound 29], the concentration for half-maximal inhibition (IC50) in test [1] was above 10000 nM; in test [2] it was 1000 to 10000 nM.

Consider `C[C@@H]1CN(c2ccc(C(F)(F)F)c3ncccc23)C[C@@H]1NC(=O)C(O)C1CC1` (single isomer, unassigned) [Compound 30], for which the concentration for half-maximal inhibition (IC50) in test [1] and in test [2] was 1000 to 10000 nM throughout.

Take `Cc1ccc(N2C[C@@H](C)[C@@H](NC(=O)CC3CCCN(C)C3)C2)c2cccnc12` (single isomer, unassigned) [Compound 35]: the concentration for half-maximal inhibition (IC50) in test [1] and in test [2] was 1000 to 10000 nM each time.

As for `Cc1ccc(N2C[C@@H](C)[C@@H](NC(=O)CC3CCCN(C)C3)C2)c2cccnc12` (single isomer, unassigned) [Compound 36], the results for the IC50 in test [1] and in test [2] were 1000 to 10000 nM and below 1000 nM, respectively.

In the case of `Cc1ccc(N2C[C@@H](C)[C@@H](NC(=O)CC3CCN(C)C3)C2)c2cccnc12` (single isomer, unassigned) [Compound 37], the IC50 is 1000 to 10000 nM in test [1] and below 1000 nM in test [2].

Take `Cc1ccc(N2C[C@@H](C)[C@@H](NC(=O)CC3CCN(C)C3)C2)c2cccnc12` (single isomer, unassigned) [Compound 38]: the IC50 in test [1] was 1000 to 10000 nM; in test [2], below 1000 nM.

For the molecule `Cc1ccc(N2C[C@@H](C)[C@@H](NC(=O)CC3CCN(C)CC3(F)F)C2)c2cccnc12` (single isomer, unassigned) [Compound 43], the values for the IC50 in test [1] and in test [2] were above 10000 nM and 1000 to 10000 nM, respectively.

Consider `Cc1ccc(N2C[C@@H](C)[C@@H](NC(=O)CC3CCN(C)CC3(F)F)C2)c2cccnc12` (single isomer, unassigned) [Compound 44], for which the IC50 in test [1] and in test [2] was 1000 to 10000 nM throughout.

In the case of `Cc1ccc(N2C[C@@H](C)[C@@H](NC(=O)C(O)C3CC3)C2)c2cccnc12` (single isomer, unassigned) [Compound 45], the IC50 in test [1] and in test [2] was above 10000 nM throughout.

For the molecule `Cc1ccc(N2C[C@@H](C)[C@@H](NC(=O)C(O)C3CC3)C2)c2cccnc12` (single isomer, unassigned) [Compound 46], the IC50 was above 10000 nM in test [1] and 1000 to 10000 nM in test [2].

Take `NC1CN(c2ccc(C(F)(F)F)c3ncccc23)CC1F` (single isomer, unassigned) [Compound 49]: the IC50 in test [1] and in test [2] was above 10000 nM in each case.

With `NC1CN(c2ccc(C(F)(F)F)c3ncccc23)CC1F` (single isomer, unassigned) [Compound 50], the concentration for half-maximal inhibition (IC50) in test [1] and in test [2] was above 10000 nM each time.
